The values below come from patent publication US8329940B2, “18β-glycyrrhetinic acid derivatives and synthetic method thereof” (Kaohsiung Medical University, priority 2009, dated 2012).

In assay [1] the test system is TNF-a formation from RAW 264.7 cells stimulated with LPS. As to conditions: for % of inhibition of TNF-a formation (in parentheses): at the highest concentration, RAW 264.7, LPS.
Procedure: Nitric oxide (NO) in the cell medium is determined by the Griess reaction. In Western blot analysis, cells are washed with PBS twice and harvested in Laemmli sodium dodecyl sulfate (SDS) sample buffer to lyse the cells. Cell lysates are separated by 10% SDS-PAGE, and electrophoretically transferred to the poly(vinylidene difluoride) membranes. Membranes are blocked for 1 h at room temperature in TBST buffer (10 mM Tris-HCl, pH 8.0, 150 mM NaCl and 0.1% Tween 20) containing 5% nonfat milk. Membranes are washed with TBST buffer and then incubated with a monoclonal anti-iNOS antibody (1:1000 dilution) for 1 h. Following washed with TBST buffer, horseradish peroxidase-labeled anti-mouse IgG (1:10,000 dilution) is added therein at room temperature for 1 h. The blots are developed using ECL Western blotting reagents. Secretory levels of TNF-a in culture supernatants are determined by the EIA kit according to the procedure of manufacturer.
Assay [2] concerns accumulation of NO2− in RAW 264.7 cells stimulated with LPS. Kind of assay: Nitrite (NO2−) accumulation in RAW 264.7 cells stimulated with LPS (Griess reaction). The format is cell-based, Murine. As to conditions: for IC50: RAW 264.7 cells stimulated with LPS, 24 h, read-out: IC50 (B) accumulation of NO2− in RAW 264.7; for % of inhibition of NO2− accumulation (in parentheses): at the highest concentration, RAW 264.7, LPS; for inhibitory effect on NO accumulation in the media induced by LPS: each at 30 μM, RAW 264.7. The procedure: Nitrite is a stable metabolite of NO in the media based on Griess reaction. […] To determine whether the inhibition of NO production in RAW 264.7 cells is attributed to the decrease of iNOS protein expression, Western blotting analysis is performed. Unstimulated cells expressed very low level of iNOS protein, whereas LPS 50 ng/mL induced a large amount of iNOS protein expression. […] Thus, the blockade of iNOS transcription has a critical role as evidenced from the parallelism of the inhibition of NO production and iNOS protein expression by compound 14.

Assay [3] relates to superoxide anion formation from rat neutrophils stimulated with fMLP/CB. Kind of assay: Superoxide anion formation in rat neutrophils stimulated by fMLP/CB. As to conditions: for % of inhibition of superoxide anion formation, fMLP/CB (in parentheses): at the highest concentration, rat neutrophils; for IC50: rat neutrophils stimulated with fMLP (0.3 μM)/CB (5 μg/mL), 30 min. It counts as cell-based. The procedure:
Compound stock solution (30 mM in DMSO) is prepared and stored at −25° C. before experiment. In the superoxide anion generation experiments, neutrophils isolated from the peripheral blood of the rats are stimulated with formyl-Met-Leu-Phe (fMLP, 0.3 μM)/Cytochalasin B (CB, 5 μg/mL) for 30 min in the presence of cytochrome c, and the superoxide anion generation is measured in terms of superoxide dismutase-inhibitable cytochrome c reduction.

Assay [4] deals with superoxide anion formation from rat neutrophils stimulated with PMA. Kind of assay: Superoxide anion formation in rat neutrophils stimulated by PMA. The format is cell-based. The note with it: for % of inhibition of superoxide anion formation, PMA (in parentheses): at the highest concentration, rat neutrophils; for IC50: rat neutrophils stimulated with PMA.
Setting [5] is: read-out: IC50 (C) TNF-a formation in RAW 264.7, RAW 264.7 cells stimulated with LPS.

Like-named read-outs stand apart in the source and are kept apart here.

The term IC50 denotes the concentration that inhibits the measured activity by half.

For `COC(=O)C1(C)CCC2(C)CCC3(C)C(=CC(=O)C4C5(C)CCC(O)C(C)(C)C5CCC43C)C2C1` (stereo not drawn) [Compound 3], the half-maximal inhibitory concentration (IC50) in assay [1] (setting [5]) turned out to be 1.3 ± 0.4 µM.

With `CC1(C(=O)O)CCC2(C)CCC3(C)C(=CC(=O)C4C5(C)CCC(=O)OC(C)(C)C5CCC43C)C2C1` (stereo not drawn) [Compound 5], in assay [2], the IC50 is more than 3 µM and the “% of inhibition of NO2− accumulation (in parentheses)” value (“% of inhibition of NO2− accumulation” below) worked out at 3.0 ± 4.2%. Moreover, in assay [3], the “% of inhibition of superoxide anion formation, fMLP/CB (in parentheses)” value (from here on “% of inhibition … fMLP/CB (in parentheses)”) is 27.4 ± 9.2% and the half-inhibitory concentration (IC50) was more than 3 µM. The “% of inhibition of TNF-a formation (in parentheses)” value (shortened to “% of inhibition of TNF-a formation”) in assay [1] was −0.7 ± 2.7%. In addition, the half-inhibitory concentration (IC50) in assay [1] (setting [5]) is more than 3 µM. In assay [4], the “% of inhibition of superoxide anion formation, PMA (in parentheses)” value (“% of inhibition … PMA (in parentheses)” below) is recorded as −8.2 ± 11.8% and the IC50 is more than 3 µM.

As for `C=C(C)C1CCC2(C)C(C(=O)C=C3C4CC(C)(C(=O)O)CCC4(C)CCC32C)C1(C)CCC(=O)OC` (stereo not drawn) [Compound 8], the half-maximal inhibitory concentration (IC50) in assay [2], in assay [3], in assay [1] (setting [5]) and in assay [4] was more than 10 µM throughout. For the same molecule, the “% of inhibition of NO2− accumulation” value in assay [2] was 29.6 ± 10.0%. Besides, the “% of inhibition … fMLP/CB (in parentheses)” value in assay [3] was found to be 81.9 ± 7.4%. Also, the “% of inhibition of TNF-a formation” value in assay [1] is on record as 21.2 ± 8.7%. Also, the “% of inhibition … PMA (in parentheses)” value in assay [4] is listed as 7.4 ± 3.1%.

`C=C(C)C1CCC2(C)C(C(=O)C=C3C4CC(C)(C(=O)O)CCC4(C)CCC32C)C1(C)CCC(=O)OC(C)C` (stereo not drawn) [Compound 9]: the IC50 in assay [2] was more than 30 µM; in assay [3], more than 1 µM; in assay [1] (setting [5]), more than 30 µM; in assay [4] it was more than 1 µM. Also, in assay [2], the “% of inhibition of NO2− accumulation” value was determined as 39.8 ± 5.4%. Moreover, in assay [3], the “% of inhibition … fMLP/CB (in parentheses)” value was determined as 48.8 ± 6.6%. Further, in assay [1], the “% of inhibition of TNF-a formation” value is on record as 38.4 ± 14.6%. Besides, the “% of inhibition … PMA (in parentheses)” value in assay [4] is recorded as −7.0 ± 3.0%.

As to `C=C(C)C1CCC2(C)C(C(=O)C=C3C4CC(C)(C(=O)OC)CCC4(C)CCC32C)C1(C)CCC(=O)O` (stereo not drawn) [Compound 10], in assay [1] (setting [5]), the IC50 was 26.1 ± 14.7 µM.

With `C=C(C)C1CCC2(C)C(C(=O)C=C3C4CC(C)(C(=O)OC)CCC4(C)CCC32C)C1(C)CCC(=O)OC` (stereo not drawn) [Compound 11], in assay [2], the IC50 is more than 30 µM, the “% of inhibition of NO2− accumulation” value was 44.3 ± 10.5% and the “inhibitory effect on NO accumulation in the media induced by LPS” value is on record as “about 40%”.

For the molecule `C=C(C)C1CCC2(C)C(C(=O)C=C3C4CC(C)(C(=O)OC(C)C)CCC4(C)CCC32C)C1(C)CCC(=O)OC` (stereo not drawn) [Compound 12], in assay [2], the IC50 is more than 30 µM, the “% of inhibition of NO2− accumulation” value is 43.0 ± 4.3% and the “inhibitory effect on NO accumulation in the media induced by LPS” value is “about 40%”. In addition, in assay [3], the “% of inhibition … fMLP/CB (in parentheses)” value is on record as −2.5 ± 11.9% and the concentration for half-maximal inhibition (IC50) was more than 30 µM. In assay [1], the “% of inhibition of TNF-a formation” value was 47.0 ± 1.3%. For the same molecule, the IC50 in assay [1] (setting [5]) is more than 30 µM. For the same molecule, in assay [4], the “% of inhibition … PMA (in parentheses)” value was 28.7 ± 15.9% and the half-inhibitory concentration (IC50) is more than 10 µM.

`C=C(C)C1CCC2(C)C(C(=O)C=C3C4CC(C)(C(=O)Nc5ccccc5)CCC4(C)CCC32C)C1(C)CCC(=O)OC` (stereo not drawn) [Compound 15]: the concentration for half-maximal inhibition (IC50) in assay [1] (setting [5]) turned out to be 15.5 ± 3.2 µM.

On to `C=C(C)C1CCC2(C)C(C(=O)C=C3C4CC(C)(C(=O)OCc5ccccc5)CCC4(C)CCC32C)C1(C)CCC(=O)O` (stereo not drawn) [Compound 17], for which the IC50 in assay [1] (setting [5]) is 2.3 ± 0.5 µM.

On to `C=C(C)C1CCC2(C)C(C(=O)C=C3C4CC(C)(C(=O)Nc5ccccc5)CCC4(C)CCC32C)C1(C)CCC(=O)O` (stereo not drawn) [Compound 21], for which the IC50 in assay [1] (setting [5]) was 27.7 ± 7.2 µM.

Regarding `CC(=N)NCc1cccc(CN)c1` [Compound 1400W, N-(3-aminomethyl) benzylacetamidine, reference compound], the concentration for half-maximal inhibition (IC50) in assay [2] is 1.5 ± 0.2 µM.

Regarding `c1ccc2c(c1)[I+]c1ccccc1-2` [DPI, reference compound], the IC50 in assay [3] was 2.7 ± 2 µM; in assay [4] it was 1.8 ± 0.4 µM.

Take `O=c1c(-c2ccc(O)cc2)coc2cc(O)cc(O)c12` [Genistein, genistein, reference compound]: the IC50 in assay [1] (Mus musculus, RAW264.7, read-out: IC50 (C) TNF-a formation in RAW 264.7) is 26.5 ± 9.1 µM.
